The source of these data is PMC9687798, “Atypical Substrates of the Organic Cation Transporter 1” (Biomolecules, 2022).

One data set deals with OCT1. Particulars: cited from earlier work.
A further data set concerns the target T1, OCT1 wild-type (Homo sapiens, UniProt O15245).
T1 construct: expressed in transfected cells
The experiment in a line: Inhibition of OCT1-mediated prostaglandin uptake by MPP+. Particulars: 1 mM inhibitor, 100 µM prostaglandin. The data set is classed as cell-based. Here is the method:
(§1) Forty-eight hours before the transport experiments, 600,000 cells were plated on 12-well plates pre-coated with poly-D-lysine and incubated at 37 °C with 5% CO2. The prepared 12-well plate with cells was positioned on a heating plate pre-warmed to 37 °C. After removing the medium, the cells were washed with 37 °C HBSS+ (10 mM HEPES in Hank’s balanced salt solution, pH 7.4). Then, one pre-defined concentration of a substrate was added to each well. The incubation period was stopped by adding 2 mL of 4 °C HBSS+ and removing the cells from the heating plate. The cells were washed twice with 4 °C HBSS+. For cell lysis, the cells were incubated for 15 min with 500 µL of 80% acetonitrile (LGC Standards, Wesel, Germany), which contained a respective internal standard (Table 1).
Figure 8 Cellular uptake of prostaglandins by OCT1. Cellular uptake ratios were determined in HEK293 cells that were transfected stably with OCT1 or its variants that were incubated with 1 µM (light blue), 10 µM (medium blue), and 100 µM (dark blue) of prostaglandin E2 and F2α for 120 s. […] Statistical significance of the uptake ratio between OCT1 and its variants and between inhibited and not inhibited OCT1 was determined using an unpaired students t-test with * p < 0.05, ** p < 0.01, and *** p < 0.001.

The target in another data set is OCT1 (wild-type, OCT1*1) (Homo sapiens, UniProt O15245). Nature of the data set: Concentration-dependent uptake (transport kinetics) in HEK293 cells overexpressing OCT1 wild-type. Particulars: human, HEK293 cells stably overexpressing human OCT1*1 (wild-type), pH 7.4, KM (±SEM), net uptake (OCT1 minus empty vector), HEK293, 0.1-1000 µM substrate, Michaelis–Menten.
Data set [1] is described as follows: Concentration-dependent uptake into empty vector-transfected HEK293 cells. The data set is classed as cell-based, human. Particulars: human, empty vector (pcDNA5/FRT)-transfected HEK293 cells, pH 7.4; empty vector-transfected HEK cells; read-out: intrinsic clearance. Here is the method:
(§2) The transport experiments were performed using HEK293 cells that overexpress human OCT1*1 (wild-type), mutant human OCT1 D474N, variant human OCT1*2 (M420del) and OCT1*3 (R61C), wild-type human OCT2, and OCT3 after stable transfection. The wild-type cell lines of OCT1 and OCT2, as well as the variant cell lines OCT1*2 and *3, were generated using the Flp-In system (Thermo Fisher Scientific, Darmstadt, Germany) as described in previous publications. The cell line overexpressing OCT3 was a kind gift from Dr. Koepsell and Dr. Gorbulev (University of Würzburg, Germany). Cells transfected with the empty pcDNA5/FRT vector were used for the transport experiments as a control cell line. All cells were cultured approximately up to passage 30.
as §1
(§3) For time-dependent transport, the cells were incubated with 1 µM of the substance for 15 to 240 s to determine the linear uptake range ≥ 15 s. For concentration-dependent transport, the cells were incubated with defined substrate concentrations (0.1, 1, 10, 30, 100, 300, 600, 1000 µM) for the respective pre-defined incubation times. […]; 100 µM) and pre-defined incubation times. The uptake by a transporter was normalised to the uptake by empty vector-transfected cells. […] The results of transport experiments were normalized to the total protein concentration per well. Total protein quantification was performed using a bicinchoninic acid assay with bovine serum albumin as standard.
(§4) The ratios of cellular uptake were calculated by dividing the total uptake of transporter-overexpressing cells by the total uptake into empty vector transfected cells. The concentration-dependent cellular net uptake was used for analysis of transport kinetics by subtracting for each substrate concentration the uptake of empty vector-transfected cells from the uptake of transporter-overexpressing cells. The transport kinetic parameters Vmax and KM were determined with non-linear regression by using the Michaelis–Menten equation for net uptake data and by using the Michaelis–Menten equation extended with a linear term for total uptake data (GraphPad Prism 5.01, GraphPad software, LA Jolla, CA, USA). The intrinsic clearance Clint was expressed with the ratio of Vmax and KM.

For data set [2], the system named is empty vector-transfected HEK cells. Described as above. The data set is classed as cell-based, human. Particulars: uptake into empty vector-transfected cells. The procedure: as §2, §1, §3, §4
For data set [3] the following is noted: no reference given; cited from earlier work.

T1 sequence (O15245 whole entry): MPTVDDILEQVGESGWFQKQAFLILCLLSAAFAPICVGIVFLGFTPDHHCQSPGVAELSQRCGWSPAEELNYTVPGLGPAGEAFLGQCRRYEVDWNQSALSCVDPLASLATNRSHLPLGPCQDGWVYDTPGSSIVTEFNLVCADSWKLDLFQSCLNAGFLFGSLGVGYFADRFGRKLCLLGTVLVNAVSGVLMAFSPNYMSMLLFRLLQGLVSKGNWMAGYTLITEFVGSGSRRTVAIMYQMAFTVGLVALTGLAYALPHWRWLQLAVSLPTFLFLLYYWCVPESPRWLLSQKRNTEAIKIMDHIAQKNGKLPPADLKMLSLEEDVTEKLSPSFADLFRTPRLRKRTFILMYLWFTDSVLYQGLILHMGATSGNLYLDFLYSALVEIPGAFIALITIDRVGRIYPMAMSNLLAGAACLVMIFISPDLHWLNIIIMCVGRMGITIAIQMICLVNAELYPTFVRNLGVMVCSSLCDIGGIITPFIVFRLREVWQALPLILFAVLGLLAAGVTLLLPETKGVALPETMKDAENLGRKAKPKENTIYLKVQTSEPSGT

`N=C(N)c1ccc(OCCCCCOc2ccc(C(=N)N)cc2)cc1` [Pentamidine, pentamidine]: in the data set with OCT1, the Km was 36.4 µM and the intrinsic clearance is 4.3 µL/mg protein/min.

As for `CCCCC[C@H](O)/C=C/[C@H]1[C@H](O)CC(=O)[C@@H]1C/C=C\CCCC(=O)O` [Prostaglandin E2, prostaglandin E2], at OCT1 wild-type, the “uptake by OCT1 wild-type with the inhibitor MPP+” value is “statistically significantly reduced uptake”. Regarding `CCCCC[C@H](O)/C=C/[C@@H]1[C@@H](C/C=C\CCCC(=O)O)[C@@H](O)C[C@H]1O` [Prostaglandin F2α, prostaglandin F2α], on OCT1 wild-type, the “uptake by OCT1 wild-type with the inhibitor MPP+” value is “not statistically significant”. Also, the Km at OCT1 (wild-type, OCT1*1) amounted to 719 µM. Turning to `N[C@@H](Cc1ccc(O)c(O)c1)C(=O)O` [Levodopa, levodopa], the microsomal CLint in data set [1] stood at 54.4 µL/min/mg. Besides, in data set [2], the Km worked out at 380 µM and the Vmax is listed as 20,681 pmol/mg protein/min. As to `COc1cc(Cc2cnc(N)nc2N)cc(OC)c1OC` [Trimethoprim, trimethoprim], in data set [3], the “fraction eliminated via the kidneys” value is “about 75%”.

A word on the Km: it is the concentration of substrate that gives half-maximal velocity.
